≈ marks a conversion by molar mass, not a printed value.
Assays:
[1] = Selectivity ratio of IC50 for human THP1 cells to MIC for isoniazid-, rifampin-, amikacin-, OLF-resistant Mycobacterium tuberculosis isolate J; format: functional, THP-1
[2] = tested on: Mycobacterium tuberculosis; assay: Antituberculosis activity against isoniazid-resistant Mycobacterium tuberculosis isolate C; format: functional
[3] = Selectivity ratio of IC50 for human THP1 cells to MIC for isoniazid-, rifampin-resistant Mycobacterium tuberculosis isolate D; format: functional, THP-1
[4] = tested on: Mycobacterium tuberculosis; assay: Antituberculosis activity against isoniazid-, rifampin-, amikacin-, OLF-resistant Mycobacterium tuberculosis isolate H; format: functional
[5] = Selectivity ratio of IC50 for human THP1 cells to MIC for INH-resistant Mycobacterium tuberculosis isolate B; format: functional, THP-1
[6] = Selectivity ratio of IC50 for human THP1 cells to MIC for isoniazid-, rifampin-, amikacin-, OLF-resistant Mycobacterium tuberculosis isolate H; format: functional, THP-1
[7] = tested on: Mycobacterium tuberculosis; assay: Antituberculosis activity against isoniazid-resistant Mycobacterium tuberculosis isolate B; format: functional
[8] = tested on: Mycobacterium tuberculosis; assay: Antituberculosis activity against isoniazid-, rifampin-resistant Mycobacterium tuberculosis isolate D; format: functional
[9] = tested on: Mycobacterium tuberculosis; assay: Antituberculosis activity against isoniazid-, rifampin-, amikacin-, OLF-resistant Mycobacterium tuberculosis isolate J; format: functional
[10] = tested on: Mycobacterium tuberculosis; assay: Antituberculosis activity against isoniazid-, rifampin-,kanamycin-,OLF-resistant Mycobacterium tuberculosis isolate I; format: functional
[11] = tested on: Mycobacterium tuberculosis; assay: Antituberculosis activity against isoniazid-, rifampin-,streptomycin-resistant Mycobacterium tuberculosis isolate E; format: functional
[12] = Selectivity ratio of IC50 for human THP1 cells to MIC for isoniazid-, rifampin-,kanamycin-,OLF-resistant Mycobacterium tuberculosis isolate I; format: functional, THP-1
[13] = Selectivity ratio of IC50 for human THP1 cells to MIC for isoniazid-, rifampin-,ethambutol-resistant Mycobacterium tuberculosis isolate G; format: functional, THP-1
[14] = tested on: Mycobacterium tuberculosis; assay: Antituberculosis activity against isoniazid-, rifampin-,ethambutol-resistant Mycobacterium tuberculosis isolate G; format: functional
[15] = Selectivity ratio of IC50 for human THP1 cells to MIC for isoniazid-, rifampin-,streptomycin-resistant Mycobacterium tuberculosis isolate E; format: functional, THP-1
[16] = Selectivity ratio of IC50 for human THP1 cells to MIC for INH-resistant Mycobacterium tuberculosis isolate C; format: functional, THP-1
[17] = tested on: Mycobacterium tuberculosis; assay: Antituberculosis activity against isoniazid-, rifampin-,ethambutol-resistant Mycobacterium tuberculosis isolate F; format: functional
[18] = Selectivity ratio of IC50 for human THP1 cells to MIC for isoniazid-, rifampin-,ethambutol-resistant Mycobacterium tuberculosis isolate F; format: functional, THP-1

| Structure (SMILES) | Selectivity ratio [1] | MIC [2] | Selectivity ratio [3] | MIC [4] | Selectivity ratio [5] | Selectivity ratio [6] | MIC [7] | MIC [8] | MIC [9] | MIC [10] | MIC [11] | Selectivity ratio [12] | Selectivity ratio [13] | MIC [14] | Selectivity ratio [15] | Selectivity ratio [16] | MIC [17] | Selectivity ratio [18] |
| --- | --- | --- | --- | --- | --- | --- | --- | --- | --- | --- | --- | --- | --- | --- | --- | --- | --- | --- |
| Cc1ccnc(NC(=O)NS(=O)(=O)c2cc(NC(=O)CCl)ccc2Cl)n1 | 10 | 10 µg/mL (≈ 23.9 µM) | 10 | 10 µg/mL (≈ 23.9 µM) | 10 | 10 | 10 µg/mL (≈ 23.9 µM) | 10 µg/mL (≈ 23.9 µM) | 10 µg/mL (≈ 23.9 µM) | 10 µg/mL (≈ 23.9 µM) | 10 µg/mL (≈ 23.9 µM) | 10 | 10 | 10 µg/mL (≈ 23.9 µM) | 10 | 10 | 10 µg/mL (≈ 23.9 µM) | 10 |
| COc1ccnc(NC(=O)NS(=O)(=O)c2cc(NC(=O)CCl)ccc2Cl)n1 | 10 | 10 µg/mL (≈ 23 µM) | 10 | 10 µg/mL (≈ 23 µM) | 10 | 10 | 10 µg/mL (≈ 23 µM) | 10 µg/mL (≈ 23 µM) | 10 µg/mL (≈ 23 µM) | 10 µg/mL (≈ 23 µM) | 10 µg/mL (≈ 23 µM) | 10 | 10 | 10 µg/mL (≈ 23 µM) | 10 | 10 | 10 µg/mL (≈ 23 µM) | 10 |

From ChEMBL document CHEMBL1949543, “Synthesis and evaluation of novel monosubstituted sulfonylurea derivatives as antituberculosis agents” (Eur J Med Chem, 2012)
